Reference: ChEMBL document CHEMBL3797048, “Structure-activity relationship studies of new rifamycins containing l-amino acid esters as inhibitors of bacterial RNA polymerases” (Eur J Med Chem, 2016)
≈ marks a conversion by molar mass, not a printed value.

Experiments:
Staphylococcus aureus [1] = experiment: Antibacterial activity against Staphylococcus aureus ATCC 6538 after 18 hrs by microdilution method; format: functional; conditions: ATCC 6538, 18 h
[2] = Octanol-water partition coefficient, logP of the compound after 1 hr by UV-vis spectrophotometric analysis; format: physicochemical
Staphylococcus aureus [3] = experiment: Antibacterial activity against methicillin resistant Staphylococcus aureus isolate 2 after 18 hrs by microdilution method; format: functional; conditions: isolate 2, 18 h
Staphylococcus aureus [4] = experiment: Antibacterial activity against methicillin resistant Staphylococcus aureus isolate 5 after 18 hrs by microdilution method; format: functional; conditions: isolate 5, 18 h
Staphylococcus aureus [5] = experiment: Antibacterial activity against methicillin resistant Staphylococcus aureus isolate 1 after 18 hrs by microdilution method; format: functional; conditions: isolate 1, 18 h
Staphylococcus aureus [6] = experiment: Antibacterial activity against methicillin resistant Staphylococcus aureus isolate 4 after 18 hrs by microdilution method; format: functional; conditions: isolate 4, 18 h
Pseudomonas aeruginosa = experiment: Antibacterial activity against Pseudomonas aeruginosa NCTC 6749 after 18 hrs by microdilution method; format: functional; conditions: NCTC 6749, 18 h
[7] = tested on: Staphylococcus epidermidis; experiment: Antibacterial activity against Staphylococcus epidermidis ATCC 12228 after 18 hrs by microdilution method; format: functional; conditions: ATCC 12228, 18 h
Escherichia coli = experiment: Antibacterial activity against Escherichia coli ATCC 25922 after 18 hrs by microdilution method; format: functional; conditions: ATCC 25922, 18 h
Staphylococcus aureus [8] = experiment: Antibacterial activity against Staphylococcus aureus ATCC 25923 after 18 hrs by microdilution method; format: functional; conditions: ATCC 25923, 18 h
Staphylococcus aureus [9] = experiment: Antibacterial activity against methicillin resistant Staphylococcus aureus isolate 3 after 18 hrs by microdilution method; format: functional; conditions: isolate 3, 18 h
[10] = Solubility in water at pH 7 by UV-vis spectrophotometric analysis; format: physicochemical
[11] = tested on: Staphylococcus epidermidis; experiment: Antibacterial activity against Staphylococcus epidermidis ATCC 49134 after 18 hrs by microdilution method; format: functional; conditions: ATCC 49134, 18 h
Staphylococcus aureus [12] = experiment: Antibacterial activity against Staphylococcus aureus ATCC 4163 after 18 hrs by microdilution method; format: functional; conditions: ATCC 4163, 18 h

Row | SMILES | MIC (Staphylococcus aureus [1]) | logP at 1 h [2] | MIC (Staphylococcus aureus [3]) | MIC (Staphylococcus aureus [4]) | MIC (Staphylococcus aureus [5]) | MIC (Staphylococcus aureus [6]) | MIC (Pseudomonas aeruginosa) | MIC [7] | MIC (Escherichia coli) | MIC (Staphylococcus aureus [8]) | MIC (Staphylococcus aureus [9]) | solubility [10] | MIC [11] | MIC (Staphylococcus aureus [12])
1 | CCOC(=O)[C@H](Cc1c[nH]c2ccccc12)NCc1c2c(O)c3c(O)c(C)c4c(c3c1O)C(=O)[C@@](C)(O/C=C/[C@H](OC)[C@@H](C)[C@@H](OC(C)=O)[C@H](C)[C@H](O)[C@H](C)[C@@H](O)[C@@H](C)/C=C/C=C(/C)C(=O)N2)O4 | 0.25 µg/mL (≈ 0.265 µM) | 2.48 | 0.5 µg/mL (≈ 0.531 µM) | 0.5 µg/mL (≈ 0.531 µM) | 0.5 µg/mL (≈ 0.531 µM) | 0.5 µg/mL (≈ 0.531 µM) | > 2 µg/mL | 0.063 µg/mL (≈ 0.0669 µM) | > 2 µg/mL | 1 µg/mL (≈ 1.06 µM) | 0.5 µg/mL (≈ 0.531 µM) | 30 µg/mL (≈ 31.8 µM) | 0.063 µg/mL (≈ 0.0669 µM) | 0.5 µg/mL (≈ 0.531 µM)
2 | CCOC(=O)[C@H](Cc1ccccc1)NCc1c2c(O)c3c(O)c(C)c4c(c3c1O)C(=O)[C@@](C)(O/C=C/[C@H](OC)[C@@H](C)[C@@H](OC(C)=O)[C@H](C)[C@H](O)[C@H](C)[C@@H](O)[C@@H](C)/C=C/C=C(/C)C(=O)N2)O4 | 0.063 µg/mL (≈ 0.0698 µM) | 2.63 | 0.125 µg/mL (≈ 0.138 µM) | 0.125 µg/mL (≈ 0.138 µM) | 0.063 µg/mL (≈ 0.0698 µM) | 0.125 µg/mL (≈ 0.138 µM) | > 2 µg/mL | 0.063 µg/mL (≈ 0.0698 µM) | > 2 µg/mL | 0.125 µg/mL (≈ 0.138 µM) | 0.125 µg/mL (≈ 0.138 µM) | 50 µg/mL (≈ 55.4 µM) | 0.125 µg/mL (≈ 0.138 µM) | 0.063 µg/mL (≈ 0.0698 µM)
3 | CO[C@H]1/C=C/O[C@@]2(C)Oc3c(C)c(O)c4c(O)c(c(CN[C@@H](Cc5ccccc5)C(=O)OCc5ccccc5)c(O)c4c3C2=O)NC(=O)/C(C)=C\C=C\[C@H](C)[C@H](O)[C@@H](C)[C@@H](O)[C@@H](C)[C@H](OC(C)=O)[C@@H]1C | 0.5 µg/mL (≈ 0.518 µM) | 2.75 |  | 1 µg/mL (≈ 1.04 µM) | 1 µg/mL (≈ 1.04 µM) | 1 µg/mL (≈ 1.04 µM) | > 2 µg/mL | 0.125 µg/mL (≈ 0.13 µM) | > 2 µg/mL | 2 µg/mL (≈ 2.07 µM) |  | 20 µg/mL (≈ 20.7 µM) | 0.25 µg/mL (≈ 0.259 µM) | 0.5 µg/mL (≈ 0.518 µM)
4 | COC(=O)[C@H](Cc1c[nH]c2ccccc12)NCc1c2c(O)c3c(O)c(C)c4c(c3c1O)C(=O)[C@@](C)(O/C=C/[C@H](OC)[C@@H](C)[C@@H](OC(C)=O)[C@H](C)[C@H](O)[C@H](C)[C@@H](O)[C@@H](C)/C=C/C=C(/C)C(=O)N2)O4 | 0.031 µg/mL (≈ 0.0334 µM) | 2.22 |  | 0.063 µg/mL (≈ 0.0679 µM) | 0.031 µg/mL (≈ 0.0334 µM) | 0.063 µg/mL (≈ 0.0679 µM) | > 2 µg/mL | 0.016 µg/mL (≈ 0.0172 µM) | > 2 µg/mL | 0.063 µg/mL (≈ 0.0679 µM) |  | 60 µg/mL (≈ 64.7 µM) | 0.016 µg/mL (≈ 0.0172 µM) | 0.031 µg/mL (≈ 0.0334 µM)
5 | CCOC(=O)[C@H](CCCNC(=N)N)NCc1c2c(O)c3c(O)c(C)c4c(c3c1O)C(=O)[C@@](C)(O/C=C/[C@H](OC)[C@@H](C)[C@@H](OC(C)=O)[C@H](C)[C@H](O)[C@H](C)[C@@H](O)[C@@H](C)/C=C/C=C(/C)C(=O)N2)O4 | 1 µg/mL (≈ 1.1 µM) | 2.22 | 2 µg/mL (≈ 2.19 µM) |  | 2 µg/mL (≈ 2.19 µM) |  |  | 0.25 µg/mL (≈ 0.274 µM) |  | > 2 µg/mL | 2 µg/mL (≈ 2.19 µM) | 90 µg/mL (≈ 98.7 µM) | 0.5 µg/mL (≈ 0.548 µM) | 1 µg/mL (≈ 1.1 µM)
6 | CO[C@H]1/C=C/O[C@@]2(C)Oc3c(C)c(O)c4c(O)c(c(CN[C@@H](Cc5c[nH]c6ccccc56)C(=O)OCc5ccccc5)c(O)c4c3C2=O)NC(=O)/C(C)=C\C=C\[C@H](C)[C@H](O)[C@@H](C)[C@@H](O)[C@@H](C)[C@H](OC(C)=O)[C@@H]1C | 1 µg/mL (≈ 0.996 µM) | 2.72 |  | 1 µg/mL (≈ 0.996 µM) | 1 µg/mL (≈ 0.996 µM) | 1 µg/mL (≈ 0.996 µM) | > 2 µg/mL | 0.25 µg/mL (≈ 0.249 µM) | > 2 µg/mL | 2 µg/mL (≈ 1.99 µM) |  | < 10 µg/mL | 0.25 µg/mL (≈ 0.249 µM) | 1 µg/mL (≈ 0.996 µM)
7 | CO[C@H]1/C=C/O[C@@]2(C)Oc3c(C)c(O)c4c(O)c(c(/C=N/N5CCN(C)CC5)c(O)c4c3C2=O)NC(=O)/C(C)=C\C=C\[C@H](C)[C@H](O)[C@@H](C)[C@@H](O)[C@@H](C)[C@H](OC(C)=O)[C@@H]1C [RIFAMPIN] | 0.008 µg/mL (≈ 0.00972 µM) |  | 0.016 µg/mL (≈ 0.0194 µM) | 0.016 µg/mL (≈ 0.0194 µM) | 0.016 µg/mL (≈ 0.0194 µM) | 0.016 µg/mL (≈ 0.0194 µM) | > 2 µg/mL | 0.004 µg/mL (≈ 0.00486 µM) | > 2 µg/mL | 0.016 µg/mL (≈ 0.0194 µM) | 0.016 µg/mL (≈ 0.0194 µM) |  | 0.008 µg/mL (≈ 0.00972 µM) | 0.008 µg/mL (≈ 0.00972 µM)
